Assay results: the supplement of paper PMC13380429

What was measured:
Conditions in all cases: 72 h
HepG2 [1] = test: relative viability EC50 (midpoint between 100% and the lowest measured viability); higher = less toxic
U2OS [2] = test: as above
Calu-3 [3] = test: as above
Caco-2 [4] = test: as above
HepG2 [5] = test: drug sensitivity score (DSS) for viability; higher = more toxic; extreme values may be limits of the assay
U2OS [6] = test: as above
Calu-3 [7] = test: as above
Vero E6 [8] = test: as above
Caco-2 [9] = test: as above
HepG2 [10] = test: cell viability relative to DMSO; higher = less toxic
U2OS [11] = test: as above
Calu-3 [12] = test: as above
Vero E6 [13] = test: as above
Caco-2 [14] = test: as above
Vero E6 [15] = test: relative viability EC50 (midpoint between 100% and the lowest measured viability); higher = less toxic

SMILES | relative viability EC50 (HepG2 [1]) | relative viability EC50 (U2OS [2]) | relative viability EC50 (Calu-3 [3]) | relative viability EC50 (Caco-2 [4]) | drug sensitivity score (HepG2 [5]) | drug sensitivity score (U2OS [6]) | drug sensitivity score (Calu-3 [7]) | drug sensitivity score (Vero E6 [8]) | drug sensitivity score (Caco-2 [9]) | cell viability (HepG2 [10]; 1 nM) | cell viability (HepG2 [10]; 10 nM) | cell viability (HepG2 [10]; 100 nM) | cell viability (HepG2 [10]; 1000 nM) | cell viability (HepG2 [10]; 10000 nM) | cell viability (U2OS [11]; 1 nM) | cell viability (U2OS [11]; 10 nM) | cell viability (U2OS [11]; 100 nM) | cell viability (U2OS [11]; 1000 nM) | cell viability (U2OS [11]; 10000 nM) | cell viability (Calu-3 [12]; 1 nM) | cell viability (Calu-3 [12]; 10 nM) | cell viability (Calu-3 [12]; 100 nM) | cell viability (Calu-3 [12]; 1000 nM) | cell viability (Calu-3 [12]; 10000 nM) | cell viability (Vero E6 [13]; 1 nM) | cell viability (Vero E6 [13]; 10 nM) | cell viability (Vero E6 [13]; 100 nM) | cell viability (Vero E6 [13]; 1000 nM) | cell viability (Vero E6 [13]; 10000 nM) | cell viability (Caco-2 [14]; 1 nM) | cell viability (Caco-2 [14]; 10 nM) | cell viability (Caco-2 [14]; 100 nM) | cell viability (Caco-2 [14]; 1000 nM) | cell viability (Caco-2 [14]; 10000 nM) | relative viability EC50 (Vero E6 [15])
O=C1C(O)=C([C@H]2CC[C@H](c3ccc(Cl)cc3)CC2)C(=O)c2ccccc21 [atovaquone] | > 10 µM | > 10 µM | > 10 µM | > 10 µM | 0 | 0 | 0 | 1.7 | 0 | 99.4% | 90.2% | 94.8% | 98.9% | 107% | 96.8% | 98.3% | 96.5% | 96.4% | 92.8% | 102% | 107% | 92.2% | 102% | 108% | 95.2% | 101% | 101% | 99.2% | 66.3% | 94.6% | 103% | 104% | 102% | 95.9% | –
CCOC(=O)NNc1ccc(N(CC)CC(C)O)nn1 (configuration not stated) [cadralazine] | > 10 µM | – | > 10 µM | > 10 µM | 0 | – | 0 | 0 | 0 | 95.6% | 103% | 97.9% | 96.6% | 106% | – | – | – | – | – | 104% | 96.3% | 91.6% | 88.1% | 101% | 105% | 100% | 94.8% | 100% | 95.2% | 110% | 97.4% | 100% | 102% | 102% | > 10 µM
CCC(=O)c1ccc(OCC(O)CN2CCN(c3ccccc3)CC2)cc1 (configuration not stated) [centpropazine] | > 10 µM | > 10 µM | – | > 10 µM | 0 | 0 | – | – | 0 | 120% | 112% | 106% | 101% | 90% | 100% | 103% | 99.3% | 106% | 97.3% | – | – | – | – | – | – | – | – | – | – | 96.8% | 92.8% | 94.6% | 93.1% | 98.4% | –
O=C(C(c1ccccc1)c1ccccc1)N1CCN(CC(O)COc2cccc3ncccc23)CC1 (configuration not stated) [dofequidar] | > 10 µM | > 10 µM | > 10 µM | > 10 µM | 0 | 0 | 0 | – | 0.1 | 95.7% | 104% | 105% | 105% | 102% | 97.4% | 102% | 94.2% | 102% | 93.8% | 90.5% | 97.8% | 109% | 129% | 104% | – | – | – | – | – | 102% | 99.9% | 94.7% | 103% | 86.3% | –
CCOC(CN1CCN(CC(C)C(=O)c2ccccc2)CC1)c1ccccc1 (configuration not stated) [eprazinone] | > 10 µM | > 10 µM | > 10 µM | > 10 µM | 0 | 0 | 0 | – | 0 | 111% | 96.7% | 102% | 98.9% | 99.6% | 98.8% | 95.8% | 95.8% | 95.2% | 98.7% | 96% | 96.9% | 95.6% | 93% | 90.8% | – | – | – | – | – | 102% | 98.9% | 110% | 95.4% | 98.2% | –
O=C(/C=C/c1c(C(=O)O)[nH]c2cc(Cl)cc(Cl)c12)Nc1ccccc1 [gavestinel] | > 10 µM | > 10 µM | > 10 µM | > 10 µM | 0 | 0 | 0 | – | 0 | 94.5% | 112% | 92.9% | 105% | 101% | 101% | 99.2% | 100% | 101% | 100% | 90.4% | 98.8% | 89.3% | 99.2% | 107% | – | – | – | – | – | 102% | 104% | 91% | 99.6% | 104% | –
COC1=C2C[C@@H](C)C[C@H](OC)[C@H](O)[C@@H](C)/C=C(\C)[C@H](OC(N)=O)[C@@H](OC)/C=C\C=C(/C)C(=O)NC(=CC1=O)C2=O [geldanamycin] | 0.35 µM | 0.474 µM | 1.01 µM | 0.716 µM | 17.3 | 15 | 7.6 | 1.8 | 9.2 | 101% | 105% | 106% | 1.2% | 1% | 100% | 101% | 93.6% | 24.2% | 3% | 99% | 107% | 103% | 68% | 35.4% | 97.1% | 102% | 98% | 98.1% | 65.9% | 106% | 95.9% | 95.1% | 56.9% | 29.2% | –
O=C1Nc2ccccc2/C1=C1/Nc2ccccc2C1=O [indirubin] | > 10 µM | – | > 10 µM | > 10 µM | 0 | – | 0 | 0 | 0 | 110% | 110% | 97.8% | 94% | 93.6% | – | – | – | – | – | 116% | 104% | 109% | 93.1% | 119% | 101% | 96.4% | 97.5% | 97.7% | 98.1% | 101% | 100% | 109% | 94.8% | 105% | > 10 µM
C=C1c2cccc(O)c2C(=O)C2=C(O)[C@]3(O)C(=O)C(C(N)=O)=C(O)[C@@H](N(C)C)[C@@H]3[C@@H](O)[C@H]12 [methacycline] | > 10 µM | > 10 µM | > 10 µM | > 10 µM | 0 | 0 | 0.3 | 5.8 | 0 | 104% | 99.9% | 97.9% | 96.9% | 89.9% | 101% | 96.9% | 104% | 99.9% | 103% | 99.3% | 89.1% | 100% | 83% | 90.7% | 70.6% | 105% | 71.4% | 97.6% | 63.2% | 98.1% | 95.7% | 99.7% | 93.5% | 95.4% | –
O=C(O)C[CH2][Ge](=[O])[O][Ge](=[O])[CH2]CC(=O)O [propagermanium] | > 10 µM | > 10 µM | > 10 µM | > 10 µM | 0 | 0 | 0 | – | 0 | 104% | 106% | 95.3% | 96.8% | 88% | 101% | 101% | 99.1% | 97.1% | 97.5% | 102% | 105% | 95.6% | 99.2% | 105% | – | – | – | – | – | 108% | 91.4% | 106% | 93.4% | 100% | –
O=c1ccc2cc3ccoc3cc2o1 [psoralen] | > 10 µM | > 10 µM | – | > 10 µM | 0 | 0 | – | – | 0 | 110% | 107% | 110% | 96.5% | 105% | 101% | 104% | 97.8% | 102% | 98.9% | – | – | – | – | – | – | – | – | – | – | 96.6% | 104% | 101% | 104% | 97.9% | –
c1nc2c(NC3CCCCC3)nc(Nc3ccc(N4CCOCC4)cc3)nc2[nH]1 [reversine] | 0.401 µM | 1.04 µM | – | 1.57 µM | 11.5 | 8.9 | 1 | 6.3 | 6 | 101% | 89.9% | 89.2% | 46.3% | 27.6% | 99.9% | 102% | 99.4% | 63.6% | 23.1% | 102% | 92.4% | 103% | 100% | 73.4% | 104% | 98.1% | 103% | 65.1% | 58% | 99.3% | 93.6% | 97.8% | 84.1% | 35.2% | –
COc1cnc(NS(=O)(=O)c2ccc(N)cc2)nc1 [sulfameter] | > 10 µM | > 10 µM | > 10 µM | > 10 µM | 0 | 0 | 0 | – | 0 | 102% | 110% | 97% | 99.6% | 106% | 96.2% | 101% | 94.3% | 101% | 97.2% | 97.2% | 96.4% | 99.3% | 101% | 105% | – | – | – | – | – | 106% | 103% | 92.7% | 103% | 98.8% | –
CCCSc1nc(N[C@@H]2C[C@H]2c2ccc(F)c(F)c2)c2nnn([C@@H]3C[C@H](OCCO)[C@@H](O)[C@H]3O)c2n1 [ticagrelor] | > 10 µM | > 10 µM | > 10 µM | > 10 µM | 0 | 0 | 0 | – | 0.3 | 107% | 112% | 95.9% | 99.1% | 89.5% | 104% | 96.3% | 101% | 103% | 96.3% | 99.9% | 99.6% | 101% | 103% | 104% | – | – | – | – | – | 98.1% | 99.5% | 98% | 97.1% | 86.5% | –
CC(C)C[C@@H](C(=O)N[C@H](C(=O)OC1CCCC1)c1ccccc1)[C@H](O)C(=O)NO [tosedostat] | – | – | – | > 10 µM | 4.6 | 1.5 | 8.9 | 0 | 1.1 | 105% | 87.8% | 88.5% | 80.1% | 66.7% | 97.7% | 103% | 96.3% | 98.3% | 70.9% | 96.2% | 101% | 74.6% | 69.7% | 59.8% | 99.7% | 99.1% | 104% | 102% | 106% | 90% | 105% | 93.6% | 88.6% | 84.1% | > 10 µM
Nc1nc(N)c2nc(-c3ccccc3)c(N)nc2n1 [triamterene] | > 10 µM | > 10 µM | > 10 µM | > 10 µM | 5.2 | 0 | 0 | 1.5 | 0 | 97.9% | 83.3% | 85.9% | 88.7% | 88.1% | 102% | 101% | 106% | 108% | 97.8% | 103% | 101% | 93.6% | 97.9% | 102% | 97.9% | 98.2% | 101% | 98.6% | 70.4% | 104% | 120% | 97.8% | 106% | 98.8% | –
